Consider nine molecules from PubChem BioAssay (NCI).

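1) Cells in 96-well plates. 2) Compound, 48 h, 5 concentrations. 3) Linear interpolation between surrounding doses. 4) Unreached endpoint = highest concentration. Abbreviation: GI50, concentration required for 50% inhibition of growth. TGI: total growth inhibition.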

Holding throughout (assay): NCI anticancer screen, dose series, 48 h
Assay [1] deals with KM12 colon.
The subject of assay [2] is NCI-H460 lung.
The test system of assay [3] is SF-295 CNS.
In assay [4] the test system is RPMI-8226 leukemia.
For assay [5], the system named is SNB-75 CNS.
Assay [6] relates to HOP-62 NSCLC.
Assay [7] deals with U251 CNS.
The test system of assay [8] is OVCAR-5 ovarian.
The subject of assay [9] is M14 melanoma.
Assay [10] has as its system CAKI-1 renal.

Take `CCOC(=O)[C@@H](N)CCC(=O)N[C@@H](CSCc1ccccc1)C(=O)N[C@@H](C(=O)OCC)c1ccccc1`: the GI50 in assay [1] is 18.1 µM; in [2], 27.1 µM; in [3] it was 18.3 µM; in assay [4], 17.8 µM; in assay [5] it was 13 µM; in assay [6], 16.6 µM. The GI50 in assay [7] was 16.6 µM; in assay [8], over 100 µM; in [9], 19 µM; in [10] it was 22.2 µM. Also, the TGI in assay [1] is 33.8 µM; in [2], over 69.8 µM; in assay [3], 40.2 µM; in assay [4], 45.1 µM; in assay [5], 26.4 µM; in [6], 32.8 µM. In addition, the TGI is 31.3 µM in assay [7], over 100 µM in assay [8], 37.2 µM in assay [9] and over 53 µM in assay [10].
With `CS/C(N)=N\NC(=O)CCC(=O)Nc1ccccc1C(F)(F)F`, the TGI in assay [1] was over 100 µM; in assay [2], over 100 µM; in [3], over 100 µM; in [4] it was over 100 µM; in assay [5], over 83.1 µM; in assay [6], over 100 µM. Further, the TGI in assay [7], in assay [8], in assay [9] and in [10] was over 100 µM in each case.
With `COc1ccc(-c2n[nH]nc2-c2cc(OC)c(OC)c(OC)c2)cc1`, the GI50 in assay [1], in assay [2], in assay [3], in [4], in [5] and in assay [6] was under 0.01 µM in each case. Further, the GI50 in [7], in assay [8], in [9] and in assay [10] was under 0.01 µM in each case. The TGI in assay [1] is 0.0445 µM; in assay [2] it was 26.3 µM; in assay [3] it was over 100 µM; in assay [4], over 32.4 µM; in assay [5] it was 92.9 µM; in assay [6], over 73.2 µM. For the same molecule, the results for the TGI in [8], in assay [9] and in assay [10] were over 100 µM, 17.8 µM and over 56.4 µM, respectively.
In the case of `COc1cc(C=C2C(=O)NC(=O)NC2=O)cc(OC)c1OC`, the TGI in assay [1], in assay [2], in [3], in [4], in [5] and in [6] was over 100 µM each time. The TGI in assay [7], in [8], in [9] and in [10] was over 100 µM in each case.
As to `CN1CCN(CCCOc2ccc3nc(Nc4ccc(Cl)c(C(F)(F)F)c4)ccc3c2)CC1`, the GI50 in [1] is 9.51 µM; in assay [2], 16.4 µM; in [3], 14.3 µM; in [4], 14.3 µM; in assay [5], 7.09 µM; in assay [6], 14.9 µM. The GI50 was 12.5 µM in assay [7], 17 µM in assay [8], 12.7 µM in [9] and 14.9 µM in assay [10]. The TGI in [1] was determined as 23.4 µM; in assay [2] it was 39.1 µM; in assay [3] it was 29.7 µM; in [4], 34.2 µM; in [5], 20.5 µM; in [6] it was 29.6 µM. The TGI was found to be 26.2 µM in [7], 35.4 µM in assay [8], 26.1 µM in [9] and 28.4 µM in assay [10].
Take `CC(C)n1nc(-c2cc3cc(O)ccc3[nH]2)c2c(N)ncnc21`: the GI50 in [1] is 0.307 µM; in assay [2], 0.127 µM; in assay [3], 0.122 µM; in assay [4], 0.0705 µM; in assay [5], 0.0377 µM; in assay [6], 0.393 µM. Besides, the GI50 in [7] was 0.565 µM; in [8], 0.244 µM; in assay [9], 0.151 µM; in assay [10], 0.262 µM. The TGI worked out at 10.8 µM in [1]; 9.38 µM in [2]; 0.87 µM in assay [3]; 1.25 µM in [4]; 0.502 µM in assay [5]; 3.56 µM in [6]. Also, the TGI in assay [7] was determined as 10.9 µM; in assay [8], 8.98 µM; in assay [9] it was 1.8 µM; in [10] it was 1.77 µM.
As to `Cc1cccc(N2CCN(C(=S)c3ccc4c(c3)OCO4)CC2)c1`, the GI50 in assay [1] was 0.514 µM; in [2], 0.472 µM; in assay [3] it was 0.409 µM; in assay [4], 8.01 µM; in [5] it was 0.8 µM; in assay [6], 0.883 µM. The GI50 is 1.89 µM in [7], 5.41 µM in assay [8], 0.463 µM in assay [9] and 0.485 µM in assay [10]. The TGI was over 100 µM in assay [1]; 37.5 µM in assay [2]; over 100 µM in assay [3]; over 100 µM in assay [4]; 6.85 µM in [5]; over 100 µM in assay [6]. The TGI in assay [7], in assay [8], in assay [9] and in [10] was over 100 µM in each case.
As to `COC1(OC)C2(Cl)C(Cl)=C(Cl)C1(Cl)C1C=CC=CC12` (centres undefined), the TGI in assay [1], in [2], in [3], in assay [4], in assay [5] and in assay [6] was over 100 µM in each case. For the same molecule, the TGI in assay [7], in [8], in [9] and in assay [10] was over 100 µM in each case.
As for `CC1(C)C(=O)N(CCCCCCN2C(=O)C(C)(C)c3ccccc32)c2ccccc21`, the TGI in assay [1] is over 100 µM; in assay [2], over 100 µM; in [3], over 100 µM; in assay [4] it was 45.1 µM; in assay [5] it was over 100 µM; in assay [6] it was over 100 µM. The TGI in assay [7] was over 100 µM; in [8] it was over 100 µM; in assay [9], 87.4 µM; in assay [10], over 100 µM.
